# Data: patent publication US10307410B2, “Mcl-1 modulating compounds for cancer treatment” (CENTRE REGIONAL DE LUTTE CONTRE LE CANCER FRANCOIS BACLESSE, priority 2014, dated 2019)
# Assays:
# [1] = system: IGROV1-R10 ovarian cancer cells; assay: Trypan blue exclusion assay; format: cell-based; conditions: IGROV1-R10, Pyridoclax associated to siXL1
# [2] = system: IGROV1-R10 chemoresistant ovarian cancer cells; assay: Pyridoclax / ABT-737 association, apoptotic cell death; format: cell-based
# Description: (§1) FIG. 4 represents the effect of the association of Pyridoclax with ABT-737 on chemoresistant ovarian cancer cells IGROV1-R10 (top) and SKOV3 (bottom). Cells were concomitantly (A, E) or sequentially (B) exposed to 25 μM Pyridoclax and 5 μM ABT-737, and cellular effects were assessed either longitudinally (A, B, E) or after 24 h (C, D, F). [A, B, E] real time cellular activity assessed by impedancmetry (xCELLigence technology), after concomitant exposure (A, E) or sequential exposure (B; 24 h Pyridoclax, then ABT-737). [C]: Cellular morphology and DNA content histograms after a 24 h concomitant exposure. [D and F]: PARP and caspase 3 cleavage after a 24 h concomitant exposure.
# (§2) Adherent and floating cells were pooled, washed with 1×PBS and centrifuged at 200 g for 5 min before staining by Annexin V, propidium iodide or both, as recommended by the manufacturer (Roche Diagnostic, Indianapolis, USA). Briefly, 100 μl of Annexin V—Flit or propidium iodide or both were added on the cells pellet (10^6 cells) and incubated 15 minutes at room temperature in obscurity. 500 μl of sample buffer was then added on the suspensions that were thereafter analyzed using a Gallios flow cytometer (Beckman Coulter, Roissy, France) and cell cycle distribution was determined using Kaluza acquisition software (Beckman Coulter).
# (§3) Cells were rinsed with ice-cold PBS, suspended in a lysis buffer [RIPA:NaCl 150 mM, Tris (pH 8) 50 mM, Triton X100 1%, PMSF 4 mM, EDTA 5 mM, NaF 10 mM, NaPPi 10 mM, Na3OV4 1 mM, aprotinin 0.5 μl/ml and 4.6 ml ultra pure water] and incubated on ice for 30 minutes. Lysates were collected after centrifugation (13200 g, 10 min, 4° C.) and protein concentrations were determined using the Bradford assay (Bio-Rad, Hercules, USA). 20 μg of protein were separated by SDS-PAGE on a 4-12% gradient polyacrylamide gel (Invitrogen, Cergy-Pontoise, France) and transferred to Hybond-PVDF membranes (Amersham, Orsay, France). […]
# [3] = system: SKOV3 chemoresistant ovarian cancer cells; assay: Real-time cellular activity by impedancemetry (xCELLigence); format: cell-based, human; conditions: SKOV3, 25 μM Pyridoclax + 5 μM ABT-737
# Description: as §1
# (§4) Compound-mediated cytotoxicity was monitored using Real-Time Cell Analyzer multi-plate (RTCA MP) Instrument, xCELLigence System (Roche Applied Science, Mannheim, Germany). This system monitors cellular events in real time measuring electrical impedance across interdigitated micro-electrodes integrated on the bottom of tissue culture E-plates View (Roche). […] Thus, this index reflects changes in cell viability as described by Ke et al. (2011, Methods Mol Biol 740, 33-43). […] Impedance was continuously measured until the end of the treatment. Standard deviations of well replicates were analyzed with the RTCA Software.
# [4] = system: SKOV3 chemoresistant ovarian cancer cells; assay: Pyridoclax / ABT-737 association, apoptotic cell death; format: cell-based, human
# Description: as §1, §2, §3
# [5] = system: IGROV1-R10 ovarian cancer cells; assay: PARP and caspase 3 cleavage by western blot; format: cell-based; parameters: key to PARP cleavage: +: a little band corresponding to the 85 kDa cleaved form of PARP is observable on the western blot; ++: a band corresponding to the 85 kDa cleaved form of PARP is clearly observable on the western blot; +++: PARP in nearly completely cleaved
# Description: Exponentially growing cells were transfected by siRNA as described below, and after 48 h, cells were continuously exposed to (Het)aromatic oligosystems (10, 25 or 50 μM) dissolved in DMSO (<0.1% of total volume) for 4 to 24 supplementary hours.
# Cells were seeded in 25 cm^2 flasks the day before to reach 30-50% confluency at the time of transfection. The transfection INTERFERin™ reagent (Polyplus Transfection, Strasbourg. France) was added to siRNA diluted in Opti-MEM® reduced serum medium (Invitrogen, Cergy-Pontoise, France) and complexes formation was allowed to proceed for 15 min at RT before being applied to cells. The final siRNA concentration in the flasks was 20 nM.
# Cells were rinsed with ice-cold PBS, suspended in a lysis buffer [RIPA:NaCl 150 mM, Tris (pH 8) 50 mM, Triton X100 1%, PMSF 4 mM, EDTA 5 mM, NaF 10 mM, NaPPi 10 mM, Na3OV4 1 mM, aprotinin 0.5 μl/ml and 4.6 ml ultra pure water] and incubated on ice for 30 minutes. Lysates were collected after centrifugation (13200 g, 10 min, 4° C.) and protein concentrations were determined using the Bradford assay (Bio-Rad, Hercules, USA). 20 μg of protein were separated by SDS-PAGE on a 4-12% gradient polyacrylamide gel (Invitrogen, Cergy-Pontoise, France) and transferred to Hybond-PVDF membranes (Amersham, Orsay, France). After blocking non-specific binding sites for 1 hour at RT by 5% (w/v) non-fat dry milk in TBS with 0.1% (v/v) Tween20 (T-TBS), the membranes were incubated overnight at 4° C. with the following rabbit monoclonal antibody: PARP, caspase-3 and Bcl-xL, Bim (Cell Signaling Technology, Ozyme, Saint-Quentin-en-Yvelines, France), Mcl-1 (Santa Cruz, Le Perray-en-Yvelines, France), HSP-70, Noxa (Calbiochem, Fontenay-sous-Bois, France), (Cell Signalling) and Actin (Sigma-Aldrich, Saint-Quentin Fallavier, France). Membranes were then washed with T-TBS and incubated for 1 hour with the appropriate horseradish peroxidase-conjugated anti-rabbit or anti-mouse (Amersham, Orsay, France) secondary antibodies. Revelation was done using a luminescent Image Analyzer (GE Healthcare, Orsay, France).
# [6] = system: IGROV1-R10 chemoresistant ovarian cancer cells; assay: Real-time cellular activity by impedancemetry (xCELLigence); format: cell-based; conditions: IGROV1-R10, 25 μM Pyridoclax + 5 μM ABT-737
# Description: as §1, §4
smiles,measurement,setting,value
"Cc1cc(-c2ncc(-c3cccnc3)cc2/C=C/c2ccccc2)cnc1-c1cccnc1 [Pyridoclax, 5,6′-di(pyridin-3-yl)-5′-methyl-3-((E)-styryl)-2,3′-bipyridine]",number of viable cells,[1],drastic decrease of the number of viable cells
same,"cell death, combination with ABT-737","[2]; IGROV1-R10, 25 μM Pyridoclax + 5 μM ABT-737",massive apoptotic cell death
same,cell death as single agent,"[2]; IGROV1-R10, single agent",neither ABT-737 nor Pyridoclax induced cell death as single agents
same,cellular activity (impedancemetry),[3],drastically decreased
same,"cell death, combination with ABT-737","[4]; SKOV3, 25 μM Pyridoclax + 5 μM ABT-737",massive apoptotic cell death
same,cell death as single agent,"[4]; SKOV3, single agent",neither ABT-737 nor Pyridoclax induced cell death as single agents
same,cleavage of PARP and caspase 3,"[5]; IGROV1-R10, Pyridoclax associated to siXL1",complete cleavage of PARP and caspase 3
same,PARP cleavage,[5]; Molecule + Bcl-xL targeting siRNA,+++
same,cellular activity (impedancemetry),[6],drastically decreased
